Reference: ChEMBL document CHEMBL1201862, “PubChem BioAssay data set” (2004)
Active and inactive are the calls of the source.

How the values were obtained:
[1] = molecular target: Ribosomal protein S6 kinase alpha-3 (Homo sapiens, UniProt P51812); type: functional;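 note: measured within a kinome-wide profiling panel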
[2] = molecular target: Dual specificity protein kinase CLK2 (Homo sapiens, UniProt P49760); type: functional
[3] = molecular target: cGMP-dependent protein kinase 1 (Homo sapiens, UniProt Q13976); type: functional;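 note: value from a kinome panel screen with PRKG1 as the panel member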
[4] = molecular target: Serine/threonine-protein kinase PLK3 (Homo sapiens, UniProt Q9H4B4); type: functional
[5] = molecular target: RAC-gamma serine/threonine-protein kinase (Homo sapiens, UniProt Q9Y243); type: functional
Sequence of RAC-gamma serine/threonine-protein kinase (Q9Y243 whole entry): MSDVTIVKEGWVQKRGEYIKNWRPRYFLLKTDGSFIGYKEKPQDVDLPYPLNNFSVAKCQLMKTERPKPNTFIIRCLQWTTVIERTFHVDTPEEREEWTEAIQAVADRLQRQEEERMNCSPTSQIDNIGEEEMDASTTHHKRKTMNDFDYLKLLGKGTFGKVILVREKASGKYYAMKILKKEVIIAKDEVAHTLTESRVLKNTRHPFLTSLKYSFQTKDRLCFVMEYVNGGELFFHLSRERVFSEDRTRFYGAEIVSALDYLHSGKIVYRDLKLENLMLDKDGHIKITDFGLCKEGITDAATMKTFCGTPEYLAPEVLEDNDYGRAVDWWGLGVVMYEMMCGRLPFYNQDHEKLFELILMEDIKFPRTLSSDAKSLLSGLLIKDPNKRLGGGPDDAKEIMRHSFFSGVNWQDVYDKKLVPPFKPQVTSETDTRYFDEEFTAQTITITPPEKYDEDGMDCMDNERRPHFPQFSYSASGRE

[6] = molecular target: 5'-AMP-activated protein kinase catalytic subunit alpha-1 (Homo sapiens, UniProt Q13131); type: functional
[7] = molecular target: Serine/threonine-protein kinase D3 (Homo sapiens, UniProt O94806); type: functional;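 note: determined within a kinase panel screen, with PRKCN as the panel member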
[8] = molecular target: Testis-specific serine/threonine-protein kinase 2 (Homo sapiens, UniProt Q96PF2); type: functional;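 note: part of the Navigating the Kinome panel, target entry STK22B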
[9] = molecular target: Tyrosine-protein kinase Lck (Homo sapiens, UniProt P06239); type: functional;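 note: lck was assayed as one member of a kinase panel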
SRSF protein kinase 1 = SRSF protein kinase 1 (Homo sapiens, UniProt Q96SB4); type: functional;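 note: measured as one member of a kinome-wide kinase profiling panel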
[10] = molecular target: Serine/threonine-protein kinase pim-1 (Homo sapiens, UniProt P11309); type: functional
[11] = molecular target: MAP kinase-activated protein kinase 2 (Homo sapiens, UniProt P49137); type: functional;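 note: measured as one member of a kinome-wide kinase panel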
[12] = molecular target: Cell division cycle 7-related protein kinase (Homo sapiens, UniProt O00311); type: functional;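 note: value obtained from a kinome-wide kinase panel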
Sequence of Cell division cycle 7-related protein kinase (O00311 whole entry): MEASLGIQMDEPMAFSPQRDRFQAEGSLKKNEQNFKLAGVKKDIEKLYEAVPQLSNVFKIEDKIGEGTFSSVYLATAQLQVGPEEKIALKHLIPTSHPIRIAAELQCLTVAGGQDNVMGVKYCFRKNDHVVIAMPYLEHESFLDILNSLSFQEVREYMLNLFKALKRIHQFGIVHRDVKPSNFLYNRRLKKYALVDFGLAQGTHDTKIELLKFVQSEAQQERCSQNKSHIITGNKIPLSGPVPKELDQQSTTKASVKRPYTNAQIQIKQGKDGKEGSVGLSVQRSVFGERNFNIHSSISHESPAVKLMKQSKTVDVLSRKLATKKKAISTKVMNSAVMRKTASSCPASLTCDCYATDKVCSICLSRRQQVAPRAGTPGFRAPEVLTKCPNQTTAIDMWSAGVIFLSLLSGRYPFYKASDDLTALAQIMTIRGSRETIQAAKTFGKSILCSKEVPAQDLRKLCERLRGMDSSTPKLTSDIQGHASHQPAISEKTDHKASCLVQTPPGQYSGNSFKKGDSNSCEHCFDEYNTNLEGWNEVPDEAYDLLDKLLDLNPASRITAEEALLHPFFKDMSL

[13] = molecular target: Fibroblast growth factor receptor 1 (Homo sapiens, UniProt P11362); type: functional
[14] = molecular target: Casein kinase I isoform alpha (Homo sapiens, UniProt P48729); type: functional
[15] = molecular target: Proto-oncogene tyrosine-protein kinase ROS (Homo sapiens, UniProt P08922); type: functional;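 note: ROS1 tested as one member of a kinome-wide kinase panel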
[16] = molecular target: Tyrosine-protein kinase Blk (Homo sapiens, UniProt P51451); type: functional;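 note: obtained as one member of a kinome-wide kinase assay panel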
[17] = molecular target: Testis-specific serine/threonine-protein kinase 1 (Homo sapiens, UniProt Q9BXA7); type: functional
Sequence of Testis-specific serine/threonine-protein kinase 1 (Q9BXA7 whole entry): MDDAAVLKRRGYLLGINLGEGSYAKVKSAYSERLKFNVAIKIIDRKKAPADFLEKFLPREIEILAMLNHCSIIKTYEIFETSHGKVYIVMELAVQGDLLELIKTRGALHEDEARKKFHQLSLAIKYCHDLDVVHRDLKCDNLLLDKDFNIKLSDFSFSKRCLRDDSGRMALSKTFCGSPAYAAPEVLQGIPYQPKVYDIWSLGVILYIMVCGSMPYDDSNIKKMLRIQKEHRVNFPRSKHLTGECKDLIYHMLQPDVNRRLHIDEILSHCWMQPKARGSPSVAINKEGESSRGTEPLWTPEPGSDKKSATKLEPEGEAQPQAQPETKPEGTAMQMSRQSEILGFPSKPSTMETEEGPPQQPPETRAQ

[18] = molecular target: High affinity nerve growth factor receptor (Homo sapiens, UniProt P04629); type: functional;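 note: NTRK1 tested as one member of a kinome-wide profiling panel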
[19] = molecular target: Mitogen-activated protein kinase 13 (Homo sapiens, UniProt O15264); type: functional
[20] = molecular target: Mitogen-activated protein kinase kinase kinase 20 (Homo sapiens, UniProt Q9NYL2); type: functional
[21] = molecular target: Serine/threonine-protein kinase pim-3 (Homo sapiens, UniProt Q86V86); type: functional;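 note: value obtained as one member of a broad kinase panel profiling effort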
[22] = molecular target: Proto-oncogene tyrosine-protein kinase Src (Homo sapiens, UniProt P12931); type: functional;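 note: SRC entry within a kinome-wide kinase profiling panel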
[23] = molecular target: Glycogen synthase kinase-3 alpha (Homo sapiens, UniProt P49840); type: functional;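 note: GSK3A result taken from a broad kinome-wide kinase panel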
[24] = molecular target: Dual specificity tyrosine-phosphorylation-regulated kinase 3 (Homo sapiens, UniProt O43781); type: functional;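 note: measured as one member of a broad kinase panel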
[25] = molecular target: MAP kinase-activated protein kinase 3 (Homo sapiens, UniProt Q16644); type: functional;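 note: value comes from a kinome-wide profiling panel in which MAPKAPK3 is one of the panel members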
[26] = molecular target: Serine/threonine-protein kinase Chk1 (Homo sapiens, UniProt O14757); type: functional;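 note: measured as one member of a kinome-wide kinase profiling panel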
[27] = molecular target: Casein kinase I isoform delta (Homo sapiens, UniProt P48730); type: functional;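 note: measured as one member (CSNK1D) of a kinome panel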
[28] = molecular target: Vascular endothelial growth factor receptor 2 (Homo sapiens, UniProt P35968); type: functional
[29] = molecular target: Cyclin-dependent kinase 5 (Homo sapiens, UniProt Q00535); type: functional;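 note: CDK5 measured as one member of a kinase profiling panel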
[30] = molecular target: Serine/threonine-protein kinase Nek4 (Homo sapiens, UniProt P51957); type: functional
[31] = molecular target: Dual specificity tyrosine-phosphorylation-regulated kinase 4 (Homo sapiens, UniProt Q9NR20); type: functional
Focal adhesion kinase 1 = Focal adhesion kinase 1 (Homo sapiens, UniProt Q05397); type: functional;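 note: measured as one member of a kinome panel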
Sequence of Focal adhesion kinase 1 (Q05397 whole entry): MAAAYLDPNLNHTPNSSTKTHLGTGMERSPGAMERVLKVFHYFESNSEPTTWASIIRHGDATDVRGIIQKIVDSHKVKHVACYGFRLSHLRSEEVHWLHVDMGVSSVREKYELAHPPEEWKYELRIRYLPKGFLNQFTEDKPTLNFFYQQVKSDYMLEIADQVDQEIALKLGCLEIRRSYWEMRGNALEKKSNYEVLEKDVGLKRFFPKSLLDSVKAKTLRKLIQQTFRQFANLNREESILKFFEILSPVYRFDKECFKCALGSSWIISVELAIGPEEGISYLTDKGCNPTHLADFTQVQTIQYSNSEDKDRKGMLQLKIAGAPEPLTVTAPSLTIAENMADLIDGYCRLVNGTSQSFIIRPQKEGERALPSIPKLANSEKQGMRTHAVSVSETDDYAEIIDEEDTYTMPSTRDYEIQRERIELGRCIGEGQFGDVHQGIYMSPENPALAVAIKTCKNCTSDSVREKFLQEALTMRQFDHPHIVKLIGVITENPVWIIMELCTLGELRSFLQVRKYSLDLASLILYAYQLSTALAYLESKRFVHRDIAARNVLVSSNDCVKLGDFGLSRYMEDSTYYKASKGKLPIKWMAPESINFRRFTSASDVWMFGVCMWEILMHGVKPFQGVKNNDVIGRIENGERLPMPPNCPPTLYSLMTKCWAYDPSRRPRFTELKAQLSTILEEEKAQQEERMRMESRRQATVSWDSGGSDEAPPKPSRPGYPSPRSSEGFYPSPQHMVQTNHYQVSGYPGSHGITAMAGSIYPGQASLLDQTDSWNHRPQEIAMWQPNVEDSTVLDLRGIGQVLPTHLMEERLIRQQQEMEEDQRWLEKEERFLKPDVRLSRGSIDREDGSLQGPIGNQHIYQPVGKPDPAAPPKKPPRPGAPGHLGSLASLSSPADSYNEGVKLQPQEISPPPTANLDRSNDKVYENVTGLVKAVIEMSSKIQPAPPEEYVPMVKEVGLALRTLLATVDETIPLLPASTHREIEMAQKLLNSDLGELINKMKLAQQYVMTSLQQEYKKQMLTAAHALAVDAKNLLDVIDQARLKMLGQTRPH

[32] = molecular target: Interleukin-1 receptor-associated kinase 1 (Homo sapiens, UniProt P51617); type: functional;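 note: IRAK1 tested as one member of a kinome panel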
[33] = molecular target: Interleukin-1 receptor-associated kinase 4 (Homo sapiens, UniProt Q9NWZ3); type: functional
[34] = molecular target: RAC-alpha serine/threonine-protein kinase (Homo sapiens, UniProt P31749); type: functional;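 note: AKT1 affinity measured as one member of a kinome-wide kinase profiling panel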
[35] = molecular target: Calcium/calmodulin-dependent protein kinase type 1 (Homo sapiens, UniProt Q14012); type: functional
[36] = molecular target: Tyrosine-protein kinase Fyn (Homo sapiens, UniProt P06241); type: functional
[37] = molecular target: Serine/threonine-protein kinase DCLK1 (Homo sapiens, UniProt O15075); type: functional;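 note: affinity for DCLK1 (listed as DCAMKL1) measured as one member of a kinome-wide kinase profiling panel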
[38] = molecular target: Fibroblast growth factor receptor 3 (Homo sapiens, UniProt P22607); type: functional
Sequence of Fibroblast growth factor receptor 3 (P22607 whole entry): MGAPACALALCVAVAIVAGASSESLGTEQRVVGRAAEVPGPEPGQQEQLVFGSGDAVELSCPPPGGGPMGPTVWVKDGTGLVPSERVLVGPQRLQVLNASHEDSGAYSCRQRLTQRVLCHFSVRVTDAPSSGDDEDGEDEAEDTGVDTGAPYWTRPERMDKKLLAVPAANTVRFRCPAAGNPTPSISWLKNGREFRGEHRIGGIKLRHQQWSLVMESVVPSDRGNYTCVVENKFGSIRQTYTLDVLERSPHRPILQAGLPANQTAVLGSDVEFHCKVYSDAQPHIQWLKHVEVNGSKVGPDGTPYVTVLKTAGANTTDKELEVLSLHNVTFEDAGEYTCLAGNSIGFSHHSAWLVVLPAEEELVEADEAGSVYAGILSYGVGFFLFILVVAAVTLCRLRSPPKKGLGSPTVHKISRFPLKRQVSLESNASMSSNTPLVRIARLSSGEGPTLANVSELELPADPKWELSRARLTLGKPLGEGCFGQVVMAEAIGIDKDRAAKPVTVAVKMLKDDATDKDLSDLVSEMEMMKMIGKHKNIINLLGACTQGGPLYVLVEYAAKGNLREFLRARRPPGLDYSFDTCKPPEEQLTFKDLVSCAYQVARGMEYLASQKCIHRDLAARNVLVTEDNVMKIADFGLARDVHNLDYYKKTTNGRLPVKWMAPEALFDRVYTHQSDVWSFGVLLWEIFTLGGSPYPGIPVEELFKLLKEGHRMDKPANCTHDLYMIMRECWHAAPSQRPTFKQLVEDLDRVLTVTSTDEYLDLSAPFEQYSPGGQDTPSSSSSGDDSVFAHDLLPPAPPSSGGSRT

[39] = molecular target: BDNF/NT-3 growth factors receptor (Homo sapiens, UniProt Q16620); type: functional;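 note: NTRK2 measured as one member of a broad kinome-wide kinase profiling panel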
[40] = molecular target: cAMP-dependent protein kinase catalytic subunit alpha (Homo sapiens, UniProt P17612); type: functional
[41] = molecular target: Mitogen-activated protein kinase 12 (Homo sapiens, UniProt P53778); type: functional;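 note: measured as one member of a kinome-wide kinase profiling panel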
[42] = molecular target: Macrophage colony-stimulating factor 1 receptor (Homo sapiens, UniProt P07333); type: functional;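 note: value comes from the Navigating the Kinome screening panel, CSF1R member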
Sequence of Macrophage colony-stimulating factor 1 receptor (P07333 whole entry): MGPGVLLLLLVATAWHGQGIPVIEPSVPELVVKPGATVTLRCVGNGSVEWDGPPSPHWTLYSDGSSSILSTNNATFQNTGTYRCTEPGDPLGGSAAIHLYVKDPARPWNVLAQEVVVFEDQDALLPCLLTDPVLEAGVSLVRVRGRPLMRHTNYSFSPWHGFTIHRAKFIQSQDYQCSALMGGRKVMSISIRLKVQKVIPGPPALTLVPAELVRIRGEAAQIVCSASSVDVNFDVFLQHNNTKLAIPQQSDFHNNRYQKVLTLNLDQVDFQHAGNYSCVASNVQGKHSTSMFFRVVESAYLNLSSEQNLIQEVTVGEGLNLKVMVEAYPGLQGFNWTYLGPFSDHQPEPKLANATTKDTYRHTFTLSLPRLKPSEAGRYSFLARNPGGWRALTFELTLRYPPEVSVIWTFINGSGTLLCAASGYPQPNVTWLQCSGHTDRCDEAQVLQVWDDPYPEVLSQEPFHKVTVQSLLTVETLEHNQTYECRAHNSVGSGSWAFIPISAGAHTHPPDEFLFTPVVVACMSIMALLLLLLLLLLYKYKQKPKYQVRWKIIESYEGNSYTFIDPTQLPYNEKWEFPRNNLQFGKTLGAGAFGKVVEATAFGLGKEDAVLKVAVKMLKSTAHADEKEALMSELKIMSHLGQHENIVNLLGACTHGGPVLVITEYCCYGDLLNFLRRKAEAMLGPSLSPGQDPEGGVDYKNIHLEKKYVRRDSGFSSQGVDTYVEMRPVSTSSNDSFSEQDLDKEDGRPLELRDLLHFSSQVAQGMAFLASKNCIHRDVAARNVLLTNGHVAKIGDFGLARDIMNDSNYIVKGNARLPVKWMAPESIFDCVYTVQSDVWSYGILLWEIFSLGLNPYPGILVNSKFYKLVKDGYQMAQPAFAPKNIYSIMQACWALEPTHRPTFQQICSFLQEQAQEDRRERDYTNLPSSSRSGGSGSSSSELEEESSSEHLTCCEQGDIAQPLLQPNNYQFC

[43] = molecular target: Serine/threonine-protein kinase BRSK1 (Homo sapiens, UniProt Q8TDC3); type: functional;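 note: measured within a kinome-wide kinase panel, with the target listed as KIAA1811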
Sequence of Serine/threonine-protein kinase BRSK1 (Q8TDC3 whole entry): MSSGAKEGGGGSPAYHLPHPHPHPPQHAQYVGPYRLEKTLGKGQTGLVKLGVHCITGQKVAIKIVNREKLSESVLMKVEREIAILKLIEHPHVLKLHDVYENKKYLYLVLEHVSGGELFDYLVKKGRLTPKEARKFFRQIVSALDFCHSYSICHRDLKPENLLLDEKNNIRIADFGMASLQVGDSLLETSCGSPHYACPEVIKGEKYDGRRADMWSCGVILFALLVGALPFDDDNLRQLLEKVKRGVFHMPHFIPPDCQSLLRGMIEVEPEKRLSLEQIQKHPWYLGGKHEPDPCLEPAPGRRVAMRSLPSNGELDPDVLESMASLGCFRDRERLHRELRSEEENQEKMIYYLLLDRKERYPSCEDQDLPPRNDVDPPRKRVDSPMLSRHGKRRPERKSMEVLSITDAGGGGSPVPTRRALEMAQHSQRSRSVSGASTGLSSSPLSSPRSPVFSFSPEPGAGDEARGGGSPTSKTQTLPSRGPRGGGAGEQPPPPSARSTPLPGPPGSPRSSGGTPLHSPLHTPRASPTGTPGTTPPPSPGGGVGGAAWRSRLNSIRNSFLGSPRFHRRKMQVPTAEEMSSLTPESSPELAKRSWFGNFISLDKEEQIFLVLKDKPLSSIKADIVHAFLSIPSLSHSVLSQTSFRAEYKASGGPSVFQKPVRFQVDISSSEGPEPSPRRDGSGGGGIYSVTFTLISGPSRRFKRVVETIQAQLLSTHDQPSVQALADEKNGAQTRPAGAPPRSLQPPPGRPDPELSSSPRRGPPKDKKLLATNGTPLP

[44] = molecular target: Tyrosine-protein kinase FRK (Homo sapiens, UniProt P42685); type: functional;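 note: FRK tested as one member of a kinome panel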
[45] = molecular target: Epidermal growth factor receptor (Homo sapiens, UniProt P00533)

Measured: Ki

NC(=O)Cn1cc(-c2cc(-c3cc4ccccc4s3)c3[nH]ncc3c2)c2nc(N)ncc21
active: [1] 5010 nM | [2] 1000 nM | [3] 398 nM | [6] 631 nM | [7] 1000 nM | SRSF protein kinase 1 2000 nM | [10] 3160 nM | [11] 25.1 nM | [12] 126 nM | [19] 794 nM | [21] 3160 nM | [23] 50.1 nM | [24] 631 nM | [25] 10000 nM | [27] 3160 nM | [28] 1260 nM | [29] 794 nM | [30] 3980 nM | [31] 2000 nM | [32] 7940 nM | [40] 631 nM | [41] 5010 nM | [43] 2000 nM
inactive: [4] > 7940 nM | [5] > 10000 nM | [8] > 1580 nM | [9] > 2510 nM | [13] > 5010 nM | [14] > 6310 nM | [15] > 2000 nM | [16] > 1580 nM | [17] > 1580 nM | [18] > 2510 nM | [20] > 7940 nM | [22] > 2000 nM | [26] > 7940 nM | Focal adhesion kinase 1 > 1580 nM | [33] > 10000 nM | [34] > 7940 nM | [35] > 5010 nM | [36] > 794 nM | [37] > 10000 nM | [38] > 2000 nM | [39] > 5010 nM | [42] > 2510 nM | [44] > 2510 nM | [45] > 2000 nM
